The text below walks through data of the SangsterLogP compilation.

A short description of data set [1]: method code SF-CR, from DOI: 10.1016/s0008-6215(00)84247-0, PMID: 18283. Particulars: pH 7.5.
Data set [2] is described as follows: method code SF-AS, from DOI: 10.1016/s0008-6215(00)84247-0, PMID: 18283. Particulars: pH 7.5.

In general, logD refers to lipophilicity at a set pH, counting ionised and neutral species. Lower therefore signals lower lipophilicity. Consider `CCOC1O[C@H](CO)[C@H](O)[C@H](O)[C@H]1O` (stereo in doubt), for which, in data set [1], the logD was -2.28.
For `CCCCCS[C@@H]1O[C@H](CO)[C@H](O)[C@H](O)[C@H]1O`, in data set [1], the pH-dependent lipophilicity (logD) was 0.39.
For `CCCCCOC1C(O)C(S)OC(CO)C1O` (stereo unspecified), the logD in data set [1] was -0.18.
The same measure, in the same setting: the result for `CCCCCCCO[C@@H]1O[C@H](CO)[C@H](O)[C@H](O)[C@H]1O` reads 0.73; that for `CCCCS[C@@H]1O[C@H](CO)[C@H](O)[C@H](O)[C@H]1O`, -0.54; that for `CCCCCCCS[C@@H]1O[C@H](CO)[C@H](O)[C@H](O)[C@H]1O`, 1.5.
Still for that read-out and setting: the result for `CCCCCCO[C@@H]1O[C@H](CO)[C@H](O)[C@H](O)[C@H]1O` reads 0.16; that for `CC(C)S[C@@H]1O[C@H](CO)[C@H](O)[C@H](O)[C@H]1O`, -1.26; that for `CCCCCO[C@@H]1O[C@H](CO)[C@H](O)[C@H](O)[C@H]1O`, -0.42.
Same read-out and setting: as for `CCCCO[C@@H]1O[C@H](CO)[C@H](O)[C@H](O)[C@H]1O`, the figure is -1.04.
As for `OC[C@H]1O[C@@H](SCc2ccccc2)[C@H](O)[C@@H](O)[C@H]1O`, in data set [2], the pH-dependent lipophilicity (logD) was -0.47.
Consider `OC[C@H]1O[C@@H](Sc2ccccc2)[C@H](O)[C@@H](O)[C@H]1O`, for which the pH-dependent lipophilicity (logD) in data set [2] was -0.56.
The same measure, in the same setting: as for `OC[C@H]1O[C@@H](SCCc2ccccc2)[C@H](O)[C@@H](O)C1O` (stereo in doubt), the figure is -0.1.
The molecule `CCCCCCCCO[C@@H]1O[C@H](CO)[C@H](O)[C@H](O)[C@H]1O` returned a logD in data set [1] of 1.46.
As to `CCS[C@@H]1O[C@H](CO)[C@H](O)[C@H](O)[C@H]1O`, the logD in data set [1] is -1.51.
As to `OCC1OC(SCCCc2ccccc2)C(O)C(O)C1O` (stereo unspecified), in data set [2], the pH-dependent lipophilicity (logD) was 0.38.
Take `CCCCCOC1C(O)C(O)OC(CO)C1O` (stereo unspecified): in data set [1], the logD was -0.8.
The same measure, in the same setting: as for `CCCS[C@@H]1O[C@H](CO)[C@H](O)[C@H](O)[C@H]1O`, the figure is -1.18; as for `CCCCCCS[C@@H]1O[C@H](CO)[C@H](O)[C@H](O)[C@H]1O`, 0.86; as for `CCCCCCCCS[C@@H]1O[C@H](CO)[C@H](O)[C@H](O)[C@H]1O`, 2.13.
Regarding `CCCO[C@@H]1O[C@H](CO)[C@H](O)[C@H](O)[C@H]1O`, the log distribution coefficient (logD) in data set [1] was -1.66.
